Columns and labels:
[1] = target: T1, human glucagon receptor (Homo sapiens (Human), UniProt P47871); assay: Glucagon cAMP Assay (Cisbio cAMP detection); format: cell-based; details: CHOK1 cells stably transfected with the human glucagon receptor; block of glucagon induced cAMP production; Kb by modified Cheng-Prusoff equation
[2] = target: T1, human glucagon receptor; assay: Human Glucagon SPA Assay (binding of [125I]Glucagon-Cex); details: membrane from chem-1 cells stably transfected with the human glucagon receptor, Ki by Cheng-Prusoff equation
Procedure: The Glucagon SPA assay is used to determine the ability of test compounds to block the binding of glucagon-cex to the glucagon receptor. Test compounds are re-suspended and serially diluted in 100% DMSO. 1 μl of test compound at the desired concentrations is spotted into the appropriate wells of 96 well low binding white clear bottom plate (Corning). 1 μl of DMSO is spotted into total binding wells. 1 μl of a known glucagon antagonist at a concentration of 20 μM is added to non specific binding wells. […] All assay ingredients with the exception of test compounds are re-suspended in the following buffer; 50 mM Hepes pH 7.4; 5 mM MgCl2; 1 mM CaCl; 5% glycerol and 0.2% BSA. Following a 6-10 hr incubation at room temperature the amount of hot ligand bound to the cell membranes is determined by reading the plates on a Wallac Trilux radioactive emission detector. Data is analyzed using Pfizer's Data analysis program. IC50 values are then determined from the generated sigmoidal dose response curves. Ki values are calculated using Cheng-Prusoff equation. N is the number of times the compound was assayed.

T1 sequence (P47871 26-477): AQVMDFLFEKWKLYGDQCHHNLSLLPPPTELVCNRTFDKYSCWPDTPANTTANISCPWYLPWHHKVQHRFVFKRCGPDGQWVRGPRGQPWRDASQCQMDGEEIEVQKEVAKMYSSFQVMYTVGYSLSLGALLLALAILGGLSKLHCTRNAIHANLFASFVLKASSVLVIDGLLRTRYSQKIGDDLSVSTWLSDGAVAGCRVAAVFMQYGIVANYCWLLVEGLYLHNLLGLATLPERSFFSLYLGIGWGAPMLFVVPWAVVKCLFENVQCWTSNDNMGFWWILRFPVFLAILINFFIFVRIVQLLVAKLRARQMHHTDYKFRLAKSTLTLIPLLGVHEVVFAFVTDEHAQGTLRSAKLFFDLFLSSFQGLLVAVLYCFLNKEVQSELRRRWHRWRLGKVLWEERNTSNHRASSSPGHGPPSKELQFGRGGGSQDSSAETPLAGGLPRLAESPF

| SMILES | Kb [1] | Ki [2] |
| --- | --- | --- |
| CCCC(Oc1cc(F)c(-n2cc(C(F)(F)F)cn2)c(F)c1)c1ccc(C(=O)NCCC(=O)O)cc1 (racemic) [Example 184, (+/−)-3-(4-{1-[3,5-difluoro-4-(4-trifluoromethyl-pyrazol-1-yl)-phenoxy]-butyl}-benzoylamino)-propionic acid] | 321 nM | 240 nM |
| CCCC(Nc1ccc(-n2cc(C(F)(F)F)cn2)nc1)c1ccc(C(=O)NCCC(=O)O)cc1C (single isomer, unassigned) [Example 111, 3-(3-methyl-4-(1-(6-(4-(trifluoromethyl)-1H-pyrazol-1-yl)pyridin-3-ylamino)butyl)benzamido)propanoic acid] | 2350 nM | 202 nM |
| CC1(C)CC([C@@H](Nc2ccc(-n3cnc(C(F)(F)F)c3)nc2)c2ccc(C(=O)NCCC(=O)O)cc2)C1 (single isomer, unassigned) [Example 134, 3-(4-((3,3-dimethylcyclobutyl)(6-(4-(trifluoromethyl)-1H-imidazol-1-yl)pyridin-3-ylamino)methyl)benzamido)propanoic acid] | 876 nM | 110 nM |
| CCCC(Nc1ccc(-n2cc(C(F)(F)F)cn2)nc1)c1ccc(C(=O)NCCC(=O)O)cc1F (single isomer, unassigned) [Example 109, 3-(3-fluoro-4-(1-(6-(4-(trifluoromethyl)-1H-pyrazol-1-yl)pyridin-3-ylamino)butyl)benzamido)propanoic acid] | 1710 nM | 153 nM |
| CCCC(Oc1ccc(-n2cc3ccc(F)cc3n2)cc1)c1ccc(C(=O)NCCC(=O)O)cc1 (racemic) [Example 186, (+/−)-3-(4-{1-[4-(6-fluoro-indazol-2-yl)-phenoxy]-butyl}-benzoylamino)-propionic acid] | 192 nM | 175 nM |
| CCCC(Nc1ccc(-n2cc(CC)c(C)n2)nc1)c1ccc(C(=O)NCCC(=O)O)cc1 (single isomer, unassigned; isomer 2) [Example 167, 3-(4-(1-(6-(4-ethyl-3-methyl-1H-pyrazol-1-yl)pyridin-3-ylamino)butyl)benzamido)propanoic acid, Isomer 2] | 1140 nM | 414 nM |
| CC1(C)CC(C(Oc2cnc(-n3cc(C(F)(F)F)cn3)nc2)c2ccc(C(=O)NCCC(=O)O)cc2)C1 (single isomer, unassigned; isomer 1) [Example 156, 3-(4-((3,3-dimethylcyclobutyl)(2-(4-(trifluoromethyl)-1H-pyrazol-1-yl)pyrimidin-5-yloxy)methyl)benzamido)propanoic acid, Isomer 1] | 246 nM | 251 nM |
| CCCC(Oc1ccc(-n2cc3cccc(Cl)c3n2)cc1)c1ccc(C(=O)NCCC(=O)O)cc1 (stereo not shown) [Example 139, (+\−)-3-(4-(1-(4-(7-chloro-2H-indazol-2-yl)phenoxy)butyl)benzamido)propanoic acid] | 147 nM | 354 nM |
| CCCCc1ccn(-c2ccc(OC(CCC)c3ccc(C(=O)NCCC(=O)O)cc3)cc2)n1 (racemic) [Example 31, (+/−)-3-(4-(1-(4-(3-butyl-1H-pyrazol-1-yl)phenoxy)butyl)benzamido)propanoic acid] | 1450 nM | 1330 nM |
| O=C(O)CCNC(=O)c1ccc(C(Nc2ccc(-n3cnc(C(F)(F)F)c3)nc2)C(F)(F)F)cc1 (racemic) [Example 121, (+/−)-3-(4-(2,2,2-trifluoro-1-(6-(4-(trifluoromethyl)-1H-imidazol-1-yl)pyridin-3-ylamino)ethyl)benzamido)propanoic acid] | 764 nM | 298 nM |
| CCCC(Nc1ccc(-n2cc(C(F)(F)F)cn2)nc1)c1ccc(C(=O)NCCC(=O)O)cc1C (single isomer, unassigned) [Example 112] | 126 nM | 143 nM |
| CCCC(Nc1ccc(-n2cc(-c3ccccc3)cn2)nc1)c1ccc(C(=O)N(C)CCC(=O)O)cc1 (racemic) [Example 165, (+/−)-3-(N-methyl-4-(1-(6-(4-phenyl-1H-pyrazol-1-yl)pyridin-3-ylamino)butyl)benzamido)propanoic acid] | 305 nM | 142 nM |
| CCCC(Oc1ccc(-n2cc3ccccc3n2)c(C)c1)c1ccc(C(=O)NCCC(=O)O)cc1 (single isomer, unassigned) [Example 116, 3-(4-(1-(4-(2H-indazol-2-yl)-3-methylphenoxy)butyl)benzamido)propanoic acid] | 450 nM | 464 nM |
| Cc1cc(C(Nc2ccc(C(=O)NCCC(=O)O)cn2)C2CCCC2)cc(C)c1-n1cc(C(F)(F)F)cn1 (single isomer, unassigned; isomer 1) [Example 170, (3-(6-((cyclopentyl(3,5-dimethyl-4-(4-(trifluoromethyl)-1H-pyrazol-1-yl)phenyl)methyl)amino)nicotinamido)propanoic acid, Isomer 1] | 1300 nM | 224 nM |

Compounds with a lower Ki [2], results first:

| Kb [1] | Ki [2] | SMILES |
| --- | --- | --- |
| 94.8 nM | 91.5 nM | CCCC(Nc1ccc(-n2cc(CC)c(C)n2)nc1)c1ccc(C(=O)NCCC(=O)O)cc1 (single isomer, unassigned; isomer 1) [Example 166, 3-(4-(1-(6-(4-ethyl-3-methyl-1H-pyrazol-1-yl)pyridin-3-ylamino)butyl)benzamido)propanoic acid, Isomer 1] |
| 247 nM | 51 nM | Cc1cc(OC(c2ccc(C(=O)NCCC(=O)O)cc2)C2CCCC2)cc(C)c1-n1cnc(C(F)(F)F)c1 (stereo not shown) [Example 131, (+\−)-3-(4-(cyclopentyl(3,5-dimethyl-4-(4-(trifluoromethyl)-1H-imidazol-1-yl)phenoxy)methyl)benzamido)propanoic acid] |
| 167 nM | 47.8 nM | CCC[C@H](Oc1cc(C)c(-n2cc3ccccc3n2)c(C)c1)c1ccc(C(=O)NCCC(=O)O)cc1 [Example 187, (S)-3-(4-(1-(4-(2H-indazol-2-yl)-3,5-dimethylphenoxy)butyl)benzamido)propanoic acid] |
| 215 nM | 37.4 nM | CC(C)(C)C(Nc1ccc(-n2cc(C(F)(F)F)cn2)nc1)c1ccc(C(=O)NCCC(=O)O)cc1 (racemic) [Example 178, (±)-3-(4-(2,2-dimethyl-1-((6-(4-(trifluoromethyl)-1H-pyrazol-1-yl)pyridin-3-yl)amino)propyl)benzamido)propanoic acid] |
| 301 nM | 35.2 nM | Cc1cc(OC(c2ccc(C(=O)NCCC(=O)O)cc2)C2CC(C)(C)C2)cc(C)c1-n1cc(C(F)(F)F)cn1 (racemic) [Example 152, (+/−)-3-(4-((3,5-dimethyl-4-(4-(trifluoromethyl)-1H-pyrazol-1-yl)phenoxy)(3,3-dimethylcyclobutyl)methyl)benzamido)propanoic acid] |
| 185 nM | 27.4 nM | Cc1cc([C@@H](CC(C)C)Nc2ccc(C(=O)NCCC(=O)O)cn2)cc(C)c1-n1cc(C(F)(F)F)cn1 [Example 168, (R)-3-(6-((1-(3,5-dimethyl-4-(4-(trifluoromethyl)-1H-pyrazol-1-yl)phenyl)-3-methylbutyl)amino)nicotinamido)propanoic acid] |
| 343 nM | 26.7 nM | O=C(O)CCNC(=O)c1ccc([C@@H](Nc2ccc(-n3cc(C(F)(F)F)cn3)nc2)C2CCCCC2)cc1 (single isomer, unassigned) [Example 147, 3-(4-(cyclohexyl(6-(4-(trifluoromethyl)-1H-pyrazol-1-yl)pyridine-3-ylamino)methyl)benzamido)propanoic acid] |
| 641 nM | 26.6 nM | O=C(O)CCNC(=O)c1ccc([C@H](CCC(F)(F)F)Nc2ccc(-n3cc(C(F)(F)F)cn3)nc2)cc1 (single isomer, unassigned; isomer 2) [Example 173, N-{4-[4,4,4-trifluoro-1-({6-[4-(trifluoromethyl)-1H-pyrazol-1-yl]pyridin-3-yl}amino)butyl]benzoyl}-beta-alanine, Isomer 2] |
| 79.3 nM | 17 nM | O=C(O)CCNC(=O)c1ccc(C(Nc2ccc(-n3cc(C(F)(F)F)cn3)nc2)C2CCCCC2)cc1 (racemic) [Example 101, (+/−)-3-(4-(cyclohexyl(6-(4-(trifluoromethyl)-1H-pyrazol-1-yl)pyridine-3-ylamino)methyl)benzamido)propanoic acid] |
| 231 nM | 15.8 nM | CC1(C)CC(C(Nc2ccc(-n3cc(C(F)(F)F)cn3)nc2)c2ccc(C(=O)NCCC(=O)O)cc2)C1 (single isomer, unassigned) [Example 115, 3-(4-((3,3-dimethylcyclobutyl)(6-(4-(trifluoromethyl)-1H-pyrazol-1-yl)pyridin-3-ylamino)methyl)benzamido)propanoic acid] |
| 45 nM | 10.3 nM | CC(C)(C)[C@H](Nc1ccc(-n2cc(C(F)(F)F)cn2)nc1)c1ccc(C(=O)NCCC(=O)O)cc1 (single isomer, unassigned; isomer 2) [Example 180, 3-(4-(2,2-dimethyl-1-((6-(4-(trifluoromethyl)-1H-pyrazol-1-yl)pyridin-3-yl)amino)propyl)benzamido)propanoic acid, Isomer 2] |
| 18.6 nM | 5.55 nM | CC1(C)CC(C(Nc2cnc(-n3cc(C(F)(F)F)cn3)nc2)c2ccc(C(=O)NCCC(=O)O)cc2)C1 (single isomer, unassigned; isomer 1) [Example 157, 3-(4-((3,3-dimethylcyclobutyl)(2-(4-(trifluoromethyl)-1H-pyrazol-1-yl)pyrimidin-5-ylamino)methyl)benzamido)propanoic acid, Isomer 1] |

Reference: patent US8507533B2, “Glucagon receptor modulators” (Pfizer Inc., priority 2011, dated 2013)
